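Five concentrations, 48 hours, 96-well plates. GI50: concentration for 50% inhibition of growth.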 Calls of active or inactive are those of the source. Cut-off read from the data, not from the text of the source: active = GI50 up to about 1.1 µM and inactive = higher.

One may read the GI50 as the concentration that inhibits growth by half.

Among the test systems are HCT-15; NCI-H460; SW-620; Hs-578T; UACC-62; BT-549; SF-295; SR; SF-268; MOLT-4; 786-0; SK-MEL-5; M14; SF-539; A549; CAKI-1; SK-OV-3; A498; MDA-N.
Holding throughout (test): DTP human tumour cell line panel, 48 h

As for `CC1(C)S[C@@H]2[C@H](NC(=O)[C@H](N)c3ccccc3)C(=O)N2[C@H]1C(=O)O` [AMPICILLIN], the GI50 in the test on HCT-15 is above 100 µM; in the test on NCI-H460, > 100 µM (inactive); in the test on SW-620 it was > 100 µM (inactive); in the test on Hs-578T, 63.8 µM (inactive); with UACC-62, > 100 µM (inactive); in the test on BT-549, > 100 µM (inactive). In addition, the GI50 with SF-295, in the test on SR, with SF-268, with MOLT-4, with 786-0 and in the test with SK-MEL-5 was > 100 µM (inactive) throughout. The GI50 in the test with M14, in the test with SF-539, in the test with A549 and in the test on CAKI-1 was > 100 µM (inactive) throughout.

As to `Cn1ccnc1Sc1ccc(/C=N\NC(=O)c2cccc(F)c2)cc1[N+](=O)[O-]`, the GI50 is 78.7 µM in the test on HCT-15; > 100 µM (inactive) in the test on NCI-H460; 33.5 µM (inactive) with SK-OV-3; > 100 µM (inactive) with SW-620; 24.2 µM (inactive) in the test on Hs-578T; 89.1 µM (inactive) in the test with UACC-62. The GI50 is 40.8 µM (inactive) in the test on BT-549; 35.9 µM (inactive) with SF-295; 33.2 µM (inactive) in the test with SR; 24 µM (inactive) in the test on SF-268; > 100 µM (inactive) with MOLT-4; 31.9 µM (inactive) with 786-0. The GI50 in the test on SK-MEL-5 was 56.4 µM (inactive); in the test on M14 it was > 100 µM (inactive); in the test with SF-539, 25.9 µM (inactive); with A549, 69.3 µM (inactive); with CAKI-1 it was > 100 µM (inactive); with A498, 29.8 µM (inactive).

On to `CSc1nc(O)c(C#N)c(-c2ccccc2)n1`, for which the concentration for 50% growth inhibition (GI50) in the test with HCT-15 is above 100 µM; in the test with NCI-H460, > 100 µM (inactive); with SK-OV-3, > 100 µM (inactive); with SW-620, > 100 µM (inactive); in the test on Hs-578T it was > 100 µM (inactive); with UACC-62, > 100 µM (inactive). The GI50 with BT-549, in the test with SF-295, in the test on SF-268, with MOLT-4, with 786-0 and in the test with SK-MEL-5 was > 100 µM (inactive) each time. Moreover, the GI50 in the test with M14, with SF-539, with A549, with CAKI-1 and in the test on A498 was > 100 µM (inactive) in each case.

As to `COc1ccc(Oc2cccc(/C=C3/C(=O)Nc4ccccc43)c2)cc1`, the GI50 in the test on HCT-15 was 10.2 µM; in the test with NCI-H460 it was 11.3 µM (inactive); with SK-OV-3, 13.8 µM (inactive); in the test on SW-620, 11.1 µM (inactive); in the test on Hs-578T, 15.4 µM (inactive); with BT-549 it was 14.8 µM (inactive). For the same molecule, the GI50 with SF-295 was 7.01 µM (inactive); with SF-268 it was 11.4 µM (inactive); with MOLT-4 it was 4 µM (inactive); with 786-0, 11.8 µM (inactive); in the test with SK-MEL-5 it was 2.62 µM (inactive); in the test on M14 it was 11.9 µM (inactive). In addition, the GI50 with SF-539 is 18.9 µM (inactive); in the test with A549 it was 7.19 µM (inactive); in the test with CAKI-1 it was 6.87 µM (inactive); in the test with A498, 12.2 µM (inactive).

Turning to `CCCCCCC(C)CC(CCCCCC)NCCOC(=O)c1ccc([N+](=O)[O-])cc1` (stereo not drawn), the GI50 in the test on HCT-15 is 10.1 µM; in the test on SK-OV-3 it was 14.9 µM (inactive); in the test with SW-620, 12.8 µM (inactive); with Hs-578T it was 17.2 µM (inactive); in the test on UACC-62, 13 µM (inactive); in the test on BT-549, 15.4 µM (inactive). The GI50 in the test with SF-295 is 15.2 µM (inactive); with SF-268, 13.8 µM (inactive); in the test on 786-0, 12.6 µM (inactive); with SK-MEL-5 it was 9.68 µM (inactive); in the test with SF-539, 13 µM (inactive); in the test on A549, 15.1 µM (inactive). Moreover, the GI50 with A498 is 18.4 µM (inactive).

In the case of `CCOC(CNc1nn2c(C)nnc2s1)OCC`, the 50% growth inhibitory concentration (GI50) was above 100 µM with HCT-15; > 100 µM (inactive) with NCI-H460; > 100 µM (inactive) with SK-OV-3; > 100 µM (inactive) with SW-620; > 100 µM (inactive) in the test on Hs-578T; > 100 µM (inactive) in the test with UACC-62. Also, the GI50 with SF-295, in the test with SR, in the test on SF-268, with MOLT-4, with 786-0 and in the test on SK-MEL-5 was > 100 µM (inactive) each time. Besides, the GI50 in the test with M14, in the test with SF-539, in the test with A549, in the test with CAKI-1, in the test on MDA-N and in the test on A498 was > 100 µM (inactive) throughout.

Take `COc1ccc(Cc2coc3ccccc3c2=O)cc1OC`: the GI50 with HCT-15 is 31.8 µM; in the test with NCI-H460, 68.1 µM (inactive); with SK-OV-3, > 100 µM (inactive); in the test with SW-620 it was > 100 µM (inactive); with Hs-578T it was 56.6 µM (inactive); with UACC-62, > 100 µM (inactive). In addition, the GI50 in the test with BT-549 is 38 µM (inactive); in the test on SF-295, 47.2 µM (inactive); with SR, 61.1 µM (inactive); in the test with SF-268, > 100 µM (inactive); in the test with MOLT-4, 49.3 µM (inactive); in the test on 786-0 it was > 100 µM (inactive). Also, the GI50 with SK-MEL-5 was 21.3 µM (inactive); in the test with M14 it was 53.8 µM (inactive); with SF-539, 42.8 µM (inactive); with A549, > 100 µM (inactive); in the test on CAKI-1, 11.6 µM (inactive).

Regarding `NS(=O)(=O)c1nnc(NS(=O)(=O)C(F)(F)F)s1`, the concentration for 50% growth inhibition (GI50) was above 100 µM in the test on HCT-15; > 100 µM (inactive) in the test on NCI-H460; > 100 µM (inactive) in the test on SK-OV-3; > 100 µM (inactive) in the test on SW-620; > 100 µM (inactive) in the test on UACC-62; > 100 µM (inactive) in the test on BT-549. The GI50 in the test with SF-295 was > 100 µM (inactive); in the test on SR it was 46.7 µM (inactive); in the test with SF-268, > 100 µM (inactive); in the test on MOLT-4, > 100 µM (inactive); with 786-0 it was > 100 µM (inactive); with M14, > 100 µM (inactive). The GI50 with SF-539, in the test with A549, with CAKI-1 and in the test with A498 was > 100 µM (inactive) each time.

In the case of `CC1(C)CC(=O)C2=C(C1)N(c1ccccc1)C1(O)C=CC(O)=C3C(=O)c4ccccc4C(=O)C321` (stereo not drawn), the 50% growth inhibitory concentration (GI50) with HCT-15 was 30.8 µM; with NCI-H460, 26.3 µM (inactive); with SK-OV-3, 88.9 µM (inactive); in the test with UACC-62 it was 19.2 µM (inactive); with BT-549, 26.9 µM (inactive); in the test with SF-295, 30 µM (inactive). The GI50 in the test with SR was 8.57 µM (inactive); in the test with SF-268 it was 20.2 µM (inactive); with MOLT-4, 12.5 µM (inactive); in the test with 786-0, 33.1 µM (inactive); in the test on M14, 40.5 µM (inactive); in the test with SF-539, 27.4 µM (inactive). Besides, the GI50 is 67.5 µM (inactive) with A549 and 26.2 µM (inactive) with CAKI-1.

Consider `CN(NC(=O)/C(=C/c1ccc(O)cc1)NC(=O)c1ccccc1)c1ccnc2cc(Cl)ccc12`, for which the GI50 in the test with NCI-H460 is 15.6 µM (inactive); in the test on SK-OV-3, 19 µM (inactive); in the test with SW-620, 20.8 µM (inactive); in the test with Hs-578T it was 19.2 µM (inactive); with UACC-62, 17.1 µM (inactive); with SF-295, 16.4 µM (inactive). Also, the GI50 was 3.08 µM (inactive) in the test with SR; 15.1 µM (inactive) with SF-268; 16.7 µM (inactive) in the test on MOLT-4; 15.9 µM (inactive) in the test with 786-0; 21 µM (inactive) in the test with SK-MEL-5; 19 µM (inactive) in the test with M14. The GI50 in the test with SF-539 is 23 µM (inactive); in the test on A549, 19.6 µM (inactive); with CAKI-1 it was 19.3 µM (inactive); with MDA-N, 17.4 µM (inactive); in the test on A498, 18.2 µM (inactive).

For `C=C1CC(c2ccc(OCCCN3C(=O)c4ccccc4C3=O)cc2)OC1=O` (stereo not drawn), the GI50 in the test on HCT-15 is 2.36 µM; in the test on NCI-H460 it was 2.07 µM (inactive); in the test with SK-OV-3, 14.4 µM (inactive); in the test with SW-620 it was 1.48 µM (inactive); with Hs-578T it was 5.31 µM (inactive); in the test on UACC-62, 1.97 µM (inactive). Also, the GI50 in the test on SF-295 is 10.5 µM (inactive); in the test on SR, 3.05 µM (inactive); in the test with SF-268 it was 4.32 µM (inactive); with MOLT-4, 1.52 µM (inactive); with 786-0 it was 1.95 µM (inactive); in the test with SK-MEL-5, 6.64 µM (inactive). The GI50 was 2.55 µM (inactive) in the test on M14; 0.123 µM (active) in the test on SF-539; 16 µM (inactive) in the test with A549; 2.37 µM (inactive) with CAKI-1; 2.79 µM (inactive) in the test on MDA-N; 1.37 µM (inactive) in the test on A498.

As to `COC1=CC(=O)c2c(O)c3c(c(O)c2C1=O)OC1(Oc2c(cc4cc(C)oc(=O)c4c2O)CC1O)C3O` (stereo not drawn), the GI50 is 29 µM in the test on HCT-15; 27.4 µM (inactive) in the test with NCI-H460; 77.1 µM (inactive) in the test with SK-OV-3; 53.7 µM (inactive) with SW-620; 91.8 µM (inactive) with Hs-578T; 32.7 µM (inactive) in the test on UACC-62. Also, the GI50 with SF-295 was 41.6 µM (inactive); in the test with SR, > 100 µM (inactive); in the test with SF-268, 61 µM (inactive); in the test on MOLT-4, 23.3 µM (inactive); with 786-0, 40 µM (inactive); in the test on SK-MEL-5 it was 26.6 µM (inactive). The GI50 with M14 was 42.5 µM (inactive); with SF-539, 44.5 µM (inactive); with A549, 45.2 µM (inactive); in the test on CAKI-1, 21.7 µM (inactive); in the test with MDA-N it was 20.8 µM (inactive); in the test with A498, 47.9 µM (inactive).

Values taken from ChEMBL document CHEMBL1201862, “PubChem BioAssay data set” (2004).
